Values after ≈ are worked out from the molar mass of the structure shown.
Conditions: for aqueous solubility: pH 6.8

Compound	MDR1-MDCK efflux ratio	intrinsic clearance, human liver microsomes	intrinsic clearance, rat liver microsomes	aqueous solubility	fraction unbound, human plasma	fraction unbound, rat plasma
CCn1nc(C2CCCC2)nc1-c1ccncc1	0.716	24.6 mL/min/kg	370 mL/min/kg	27 µg/mL (≈ 111 µM)		
Cc1cccc(NC(=O)c2noc3c2CCCC3)n1		197 mL/min/kg	1070 mL/min/kg	17.1 µg/mL (≈ 66.3 µM)		
Cc1nc2cc(NC(=O)CCc3c(C)noc3C)ccc2o1	4.62	≤ 4.74 mL/min/kg	78.5 mL/min/kg	39.1 µg/mL (≈ 131 µM)		
Cc1sc(NC(=O)CN2CCOC(C3CCCO3)C2)c(C)c1C (stereo not drawn)	1	12.8 mL/min/kg	185 mL/min/kg	60.9 µg/mL (≈ 180 µM)		
CN(Cc1cccc(C#N)c1)Cc1cnn(C)c1	0.578	≤ 4.74 mL/min/kg	≤ 10.7 mL/min/kg	32.1 µg/mL (≈ 134 µM)		
O=C(C1CCC1)N1CCC(c2ncc(-c3ccc(F)c(F)c3)[nH]2)CC1	3.5	43.2 mL/min/kg	2740 mL/min/kg	57.1 µg/mL (≈ 165 µM)		
O=C(NC[C@]1(O)CCN(Cc2cscn2)C[C@H]1O)c1c[nH]cn1		≤ 4.74 mL/min/kg	42.6 mL/min/kg			
O=C(NC1CCCCC1)C1=CCN(C(=O)C2CC2)C1	2.4	≤ 4.74 mL/min/kg	29.8 mL/min/kg			
Cc1ccc(CNC/C=C/c2ccccc2)cn1	0.387	28.5 mL/min/kg	410 mL/min/kg	29.1 µg/mL (≈ 122 µM)		
Cc1cc(N2CCCCC2)nc(CNC(=O)c2ccccc2Cl)n1	0.671	56.5 mL/min/kg	1000 mL/min/kg	65.2 µg/mL (≈ 189 µM)		
O=C(CSc1nnc(-c2cccs2)[nH]1)N1CCCCCC1	2.11	39.4 mL/min/kg	370 mL/min/kg	27.6 µg/mL (≈ 85.6 µM)		
Cc1ccc(CCNc2nc(C)cc(C)n2)cn1		12.7 mL/min/kg	192 mL/min/kg			
Clc1snnc1CN1CCCN(c2nc3ccccc3[nH]2)CC1	13.1	105 mL/min/kg	1440 mL/min/kg	28.2 µg/mL (≈ 80.7 µM)		
c1cc2c(N3CCNCC3)nc(-c3ccnc(NC4CCCCC4)c3)cc2cn1	26.5	68.7 mL/min/kg	260 mL/min/kg	39.9 µg/mL (≈ 103 µM)		
Cc1cc(C)nc(N(C)CC(=O)NC2CC2)n1	0.884	≤ 4.74 mL/min/kg	23.1 mL/min/kg	34.9 µg/mL (≈ 149 µM)		
O[C@@H]1CO[C@H]2C[C@@H]1Nc1c(-c3ccccc3)cccc12	0.599	15 mL/min/kg	367 mL/min/kg	17 µg/mL (≈ 63.6 µM)		
Cn1ccc(CN2CCC(c3cnccn3)CC2)n1	0.983	≤ 4.74 mL/min/kg	26.8 mL/min/kg	50 µg/mL (≈ 194 µM)		

Compound	MDR1-MDCK efflux ratio	intrinsic clearance, human liver microsomes	intrinsic clearance, rat liver microsomes	aqueous solubility	fraction unbound, human plasma	fraction unbound, rat plasma
Cc1ncc(CCN2C(=O)NC3(CCCC3)C2=O)s1	91	≤ 4.74 mL/min/kg	63.6 mL/min/kg			
CC(C)c1nccn1Cc1nc(-c2cccs2)no1		13.6 mL/min/kg	1930 mL/min/kg			
CC(=O)N(C)[C@H]1CC2(CCN(C(=O)COc3ccc(F)cc3F)CC2)OC[C@]1(C)O	14.9	≤ 4.74 mL/min/kg	15.4 mL/min/kg			
Cc1ccc(O)c(CN2CCC(c3nc4ccccc4o3)CC2)n1	0.688	22.2 mL/min/kg	229 mL/min/kg			
COc1ccc(OCC(=O)N2CCN(C)CC2)cc1	0.763	≤ 4.74 mL/min/kg	133 mL/min/kg	52.5 µg/mL (≈ 199 µM)		
COc1ccc(CN2CCN(c3cc(C)nc(N)n3)CC2)cc1OC	5.7	≤ 4.74 mL/min/kg	≤ 10.7 mL/min/kg	53.6 µg/mL (≈ 156 µM)		
O=C1CN(c2ccc(Nc3nccc(C(F)(F)F)n3)cn2)CCN1	2.94	≤ 4.74 mL/min/kg	24.4 mL/min/kg	51.3 µg/mL (≈ 152 µM)	0.35	0.271
CC(C)[C@H]1C(=O)N[C@H](CO)Cc2cc(NC(=O)/C=C/C=C/c3ccc(C(F)(F)F)cc3)ccc2N1C	55.9	497 mL/min/kg	439 mL/min/kg			
Cc1nn(C)c2ncc(CNc3ccon3)cc12	0.858	≤ 4.74 mL/min/kg	14.2 mL/min/kg			
Cc1cc(C)nc(CNC(=O)CC2CCNCC2)n1		≤ 4.74 mL/min/kg	≤ 10.7 mL/min/kg	55.5 µg/mL (≈ 212 µM)		
Cc1nc(NCc2sccc2C)n(C)n1	0.795	≤ 4.74 mL/min/kg	21.6 mL/min/kg			
CONC(=O)c1c(C)nn(C)c1Cl	0.868	≤ 4.74 mL/min/kg	≤ 10.7 mL/min/kg			
Cc1cccnc1Nc1cccc(C2CCCN(CC(=O)Nc3nccs3)C2)n1 (stereo not drawn)	1.49	89.9 mL/min/kg	582 mL/min/kg		0.0152	0.0434
c1ccc2nc(OC3CCNCC3)cnc2c1		≤ 4.74 mL/min/kg	183 mL/min/kg			
C=C1C[C@@H]2[C@H](CC[C@]3(C)C(=O)CC[C@@H]23)[C@@]2(C)C=CC(=O)C=C12	0.494	≤ 4.74 mL/min/kg	≤ 10.7 mL/min/kg			
Cc1c(C(=O)Nc2cnccn2)cccc1-c1ccccn1		≤ 4.74 mL/min/kg	496 mL/min/kg			
CC(=O)NC1(C(=O)N2CCCN(C3CC3)CC2)CCC(C)CC1 (stereo not drawn)	37.7	27.7 mL/min/kg	80.8 mL/min/kg	53.8 µg/mL (≈ 167 µM)		

Other lines, results leading:

MDR1-MDCK efflux ratio	intrinsic clearance, human liver microsomes	intrinsic clearance, rat liver microsomes	aqueous solubility	fraction unbound, human plasma	fraction unbound, rat plasma	Compound
11	13.3 mL/min/kg	106 mL/min/kg	48.7 µg/mL (≈ 120 µM)			Cc1c(-c2ccccc2)oc2c(C(=O)NCCCN3CCCCC3)cccc2c1=O
	52 mL/min/kg	247 mL/min/kg				COc1ccc(CNC(=O)CCSc2nc3c(=O)n(C)c(=O)n(C)c3n2C)cc1
16.7	134 mL/min/kg	2500 mL/min/kg				CC(C)N(C)S(=O)(=O)NCCCc1nc2cc(Cl)ccc2[nH]1
8.29	41.6 mL/min/kg	204 mL/min/kg	2.43 µg/mL (≈ 6.29 µM)			O=C(CSc1nccn1C1CC1)Nc1c(Cl)cc(Cl)cc1C(=O)O
15.4	184 mL/min/kg	875 mL/min/kg	29.1 µg/mL (≈ 88.5 µM)			O=C(Cc1ccc2ccccc2c1)NCCc1nc2ccccc2[nH]1
	123 mL/min/kg	1070 mL/min/kg	28.4 µg/mL (≈ 110 µM)			CCNC(=O)c1ccnc(-c2ccc(F)c(C)c2)c1
0.42	26.1 mL/min/kg	124 mL/min/kg				O=c1c2ccccc2nnn1CCOc1ccc(F)cc1
			64.8 µg/mL (≈ 145 µM)			Cc1cc(F)c(C(=O)Nc2cccc(-c3nncn3C(C)C)n2)cc1-n1cnc(C2CC2)c1
			25.4 µg/mL (≈ 85.6 µM)			CCN(CC)CCCNc1c2c(nc3ccccc13)CCC2
	≤ 4.74 mL/min/kg	459 mL/min/kg				CCOc1ccc(NC(=O)c2ccc3c(c2)NC(=O)CO3)cc1
0.117			0.44 µg/mL (≈ 1.57 µM)			Cc1cc(F)ccc1NC(=O)c1cccc2cccnc12
0.579	≤ 4.74 mL/min/kg	18.8 mL/min/kg	44.5 µg/mL (≈ 178 µM)			Cc1ccc(C(=O)NCC#Cc2ccccc2)cn1
14.6			38.5 µg/mL (≈ 100 µM)			CC(C)S(=O)(=O)c1ccc2nccc(Nc3ccc4scnc4c3)c2c1
8.42	6 mL/min/kg	27.7 mL/min/kg	62.2 µg/mL (≈ 177 µM)	0.604	0.893	Cc1cc(F)ccc1C1C(=O)NCCN1C(=O)c1ccc2nccn2c1 (stereo not drawn)
0.752			35.9 µg/mL (≈ 146 µM)			Cc1ccc(-c2csc(CC(N)=O)n2)cc1C
86.7	182 mL/min/kg	142 mL/min/kg	55.7 µg/mL (≈ 141 µM)			CC(C)c1ccc(-c2cc3c(=O)n(CCC(=O)NCCN(C)C)ccn3n2)cc1
	9.52 mL/min/kg	65.2 mL/min/kg				CC(=O)Nc1ccc(C(=O)Nc2cc(-c3cccs3)ccc2N)cc1
1.1	7.25 mL/min/kg	499 mL/min/kg				O=C1CN(C(=O)c2ccc(Cl)cn2)CCN1CCc1ccccc1
4.4	44.2 mL/min/kg	328 mL/min/kg	28.9 µg/mL (≈ 94.5 µM)			Cc1cc(N(C)Cc2ccc(N)nc2)nc(-c2ccncc2)n1
0.561	≤ 4.74 mL/min/kg	71 mL/min/kg	52.1 µg/mL (≈ 173 µM)			Cc1ccc(-c2cc(NC(=O)CN3CCOCC3)on2)cc1
	255 mL/min/kg	1760 mL/min/kg				O=C(CCc1ccc(-c2ccccc2)o1)N1CCC(n2c(=O)[nH]c3ccccc32)CC1
12.4	90.5 mL/min/kg	2250 mL/min/kg	62.3 µg/mL (≈ 189 µM)			Cn1ccnc1CN(C(=O)c1[nH]c2ccccc2c1Cl)C1CC1
	7.59 mL/min/kg	25.3 mL/min/kg				Nc1ccc2c(c1)ncn2-c1ccccc1
	29.8 mL/min/kg	368 mL/min/kg				COc1ccc2c(c1)C(=O)N(c1ccc(C)cc1)C(=O)C2

Source: the Biogen ADME set (Fang et al. 2023)
